Here are results for two compounds from patent publication US20220127297A1, “Novel Antibacterial 3"-Derivatives Of 4,6-Disubstituted 2,5-Dideoxystreptamine Aminoglycoside Antibiotics” (AGILeBiotics B.V., priority 2018, published 2022).

≈ marks a conversion by molar mass, not a printed value. Read-outs that look alike come from different tables or passages of the source.

Assay [1] concerns Escherichia coli (ATCC 700336). The assay can be described thus: MIC against the strain of the urinary tract infection model. The note with it: ATCC700336. The class given is cell-based.
Assay [2] has as its system Escherichia coli ATCC700336. The assay can be described thus: Urinary tract infection model. The class given is in vivo, female C3H/HeNRj mice. The note with it: for Change from vehicle group / Avg. Log CFU/g (kidney pair): SC, QD; for Change from vehicle group: Avg. Log CFU/g (kidney pair) vs vehicle; for Avg. Log CFU/g (kidney pair): kidneys 24 hours post treatment. As for the experimental part:
4.3 Urinary Tract Infection Model (Escherichia coli ATCC700336)
Two compounds, i.e. ABX5006 and ABX5026, and a comparator antibiotic (gentamicin sulfate; Cat. No. G4918, Sigma Aldrich) were tested in a mouse model of urinary tract infection with Escherichia coli ATCC700336.
Urinary tract infection model: Pathogen-free female C3H/HeNRj mice (8 mice per dosing group) weighing 24±4 g were used.
For subcutaneous treatment, pre-weighed reference compound (gentamicin sulfate) was dissolved in 0.9% sodium chloride solution, to reach a final concentration of 1.5 mg/mL for a dose of 15 mg/kg (group 3) or 3.0 mg/mL for a dose of 30 mg/kg (group 2). Each mouse was infected transurethral with Escherichia coli ATCC700336 (5.0×10^1 CFU/100 μL/mouse), under light ketamine/xylazine anesthesia. Mice were water deprived 1.5 hours prior to infection and 1 hour post infection.
Animals were dosed subcutaneously once either with gentamicin (groups 2-3), ABX5006 (groups 4-5), ABX5026 (groups 6-7) or vehicle—PBS (group 1) 24 hours post infection.
Both kidneys were aseptically removed and placed into pre-weighed sterile Precellys test tube containing 2 mL of sterile PBS. Post-sampling, Precellys test tubes were weighed once again. Kidneys were homogenized in sterile PBS by Precellys Evolution, homogenizer, BERTIN Technologies, and serially diluted for CFU determination. Kidney pairs of one animal will represent one sample.
Supplies/Chemicals. Tryptic Soy Agar (BD Cat. no. 236950, Becton Dickinson), Trypticase Soy Broth (BD Cat. no. 211768, Becton Dickinson), 2 mL syringes (BD Plastipak, Ref. 300185, Becton Dickinson), 1 mL syringes (BD Plastipak, Ref. 300013, Becton Dickinson), Sterile, single use needles (BD MICROLANCE, 27 G ¾, Nr. 20 ref. 300220, Becton Dickinson), Sterile, single use needles (BD MICROLANCE, 25 G 1, Nr. 18 ref. 300400, Becton Dickinson), Narkamon (100 mg/mL ketamine chloride) (Bioveta, a.s., Czech Republic), Xylazine 2% (Alfasan International B.V., Woerden, Netherlands), Saline (HZ™, serial no.: 1422115), PBS (Sigma, cat. no. P4417, Germany), Precellys lysing kit (ref. no. KT03961-1-302.7, Bertin technologies, France).
Inoculum preparation for intramuscular infection. Escherichia coli ATCC 700336 was grown on Tryptic Soy Agar plate and incubated for 18-20 h at 37° C. Bacterial agar growth was suspended to 1.0×10^10 colony-forming units (CFU)/mL in adequate volume of tryptic soy broth (TSB), and the inoculum was held at 4° C. until it was used for infection.
CFU determination. Kidney pairs were homogenized using a Precellys Evolution homogenizer (Bertin Instruments).

Assay [3] deals with clinical isolates of Pseudomonas aeruginosa (and ATCC 27853). As to the kind of experiment: MIC determination at University Medical Center Groningen. The format is cell-based. The text has this:
3.4.3 MIC Determination at University Medical Center Groningen (the Netherlands)
Tested reference compounds. Amikacin sulfate (Cat. No. 01693, Chem-Impex), Gentamicin sulfate (Cat. No. G4918, Sigma Aldrich).
Bacterial strains/isolates. Pseudomonas aeruginosa ATCC 27853, Escherichia coli ATCC 25922, Klebsiella pneumonia ATCC43816, Acinetobacter baumannii ATCC17978, 9 clinical isolates of Klebsiella pneumonia (origin: 4 unknown, 3 urine, 1 sputum, 1 catheter tip), 7 clinical isolates of Pseudomonas aeruginosa (origin: 3 unknown, 1 wound, 1 catheter, 1 faeces, bronco alveolar liquid=BAL), 8 clinical isolates of Escherichia coli (origin: 2 bile liquid, 2 rectum, 1 throat, 2 blood culture, 1 sputum), 4 clinical isolates of Acinetobacter baumannii (origin: 2 blood culture, 1 sputum, 1 bone).
Culture media and equipment. As indicated by EUCAST guidelines (European Committee on Antimicrobial Susceptibility Testing (EUCAST); Media preparation for EUCAST disk diffusion testing and for determination of MIC values by the broth microdilution method; Version 5.0, 2017), Mueller Hinton Broth, CM0405, (Oxoid) was used for the broth micro-dilutions; and Mueller Hinton Agar, CM0337, (Oxoid) was used for the plating on agar. The testing assays were conducted in 96-well plates, with U-bottom shape (Greiner Bio-one); All bacteria strains/isolates used were handled in a Laminar flow, Clean Air (Baker). A CO2 incubator commercialized by Sanyo was used. Finally, spectrophotometer measurements were conducted using a Synergy 2 Multi-detection Microplate Reader (BioTek).
Compound preparation. The compounds were weighed and dissolved into MilliQ water. These concentrated stock aliquots were then further diluted to reach the desired testing concentrations. Serial dilutions were made in order to achieve the ten desired final concentrations for the tested compounds, that ranged between 64-0.125 μg/mL. The concentrations were calculated in respect to the 150 μL of final volume used for each of the 96-wells. Of these dilutions, 100 μL was added in each testing well of a sterile 96-well plate. All compound dilutions were plated in triplicate, while duplicates were used for the two reference antibiotics.
Inoculum preparation. The clinical isolates were revived from Luria Bertani medium storage at −80° C. by plating them overnight on MH agar plates. The following day, a few colonies were picked and inoculated in small glass bottles containing 10 mL MH broth. Growth was subsequently allowed for approx. 3 hours, at 35° C. with 250 rpm shaking, until the isolates reached late logarithmic growth phase. At this point culture solutions were prepared with an OD600 (optical density measured at 600 nm; measured using Synergy 2 Multi-detection Microplate Reader; BioTek) of 0.05. […] 50 μL of culture suspension was added to each of the wells of the 96 well plate previously loaded with the desired antibiotic/medium solution, reaching a final total volume of 150 μL per well. As controls, blanks of the MH medium and of culture were added to the 96-well plate. Plates were incubated in a plate incubator in static conditions at 35° C. for 18 hours.
MIC determination. After the incubation time, the MIC value was determined by visual inspection of bacterial growth within 96-well plates. The first column in which there was no visible growth of bacteria was determined as the MIC90 value for the compound tested in that particular row. Additionally, spectrophotometer readouts at 600 nm were recorded for each well.
MIC90. The MIC90 of a compound was assigned at which no visible growth of bacteria was determined.

The term MIC denotes the smallest concentration in the dilution series that meets the test's criterion for growth inhibition. Low values mean inhibition by little substance, high ones a need for much substance.

For the compound `N=C(N)NC1C(O)[C@@H](CO)OC(OC2C(F)[C@H](O[C@H]3OC(CN)[C@@H](O)CC3N)C(N)C[C@H]2NC(=O)[C@@H](O)CCN)[C@@H]1O` (stereo partly drawn) [ABX5006, Tobra-AHB-F-Gua], the MIC in assay [1] is 0.25 µg/mL (≈ 0.408 µM). Moreover, the “CFU count reduction in kidneys in comparison to the vehicle control group” value in assay [2] (dose 15 mg/kg SC QD) came to 1.38 log 10; in assay [2] (dose 30 mg/kg SC QD), 1.53 log 10. For the same compound, the “Change from vehicle group” value stood at 1.38 in assay [2] (dose 15 mg/kg) and 1.53 in assay [2] (dose 30 mg/kg). Also, the “Avg. Log CFU/g (kidney pair)” value in assay [2] (dose 15 mg/kg) was found to be 2.60 Log CFU/g; in assay [2] (dose 30 mg/kg), 1.45 Log CFU/g. Further, the MIC90 in assay [3] (ATCC27853, P. aeruginosa ATCC27853 strain, broth micro-dilution (CLSI), read-out: MIC 90) was 0.25 µg/mL; in assay [3] (ATCC27853, P. aeruginosa clinical isolate PA-179, Multidrug-resistant, origin Wound, read-out: MIC 90), 2 to 4 µg/mL; in assay [3] (ATCC27853, P. aeruginosa clinical isolate PA-195, Multidrug-resistant, origin Catheter, read-out: MIC 90), 0.5 to 1 µg/mL; in assay [3] (ATCC27853, P. aeruginosa clinical isolate PA-198, Multidrug-resistant, origin unkown), 1 to 2 µg/mL; in assay [3] (ATCC27853, P. aeruginosa clinical isolate PA-202, Multidrug-resistant, origin Faeces, read-out: MIC 90), 0.25 to 0.5 µg/mL; in assay [3] (ATCC 27853 / BAL, P. aeruginosa clinical isolate P4-171, Pandrug-resistant, origin BAL, read-out: MIC 90) it was 8 µg/mL.

`N=C(NC[C@@H]1CCCN1)NC1[C@@H](O)C(OC2[C@@H](F)[C@H](O[C@H]3OC(CN)[C@@H](O)CC3N)C(N)C[C@H]2NC(=O)[C@@H](O)CCN)O[C@H](CO)[C@H]1O` (stereo partly drawn) [ABX5026, Tobra-AHB-F-Gua (S) pyrrolidine-2-yl-methyl]: the MIC in assay [1] came to 1 µg/mL (≈ 1.44 µM). Besides, the “CFU count reduction in kidneys in comparison to the vehicle control group” value stood at 1.58 log 10 in assay [2] (dose 15 mg/kg SC QD) and 1.72 log 10 in assay [2] (dose 30 mg/kg SC QD). The “Change from vehicle group” value was determined as 1.58 in assay [2] (dose 15 mg/kg) and 1.22 in assay [2] (dose 30 mg/kg). Besides, the “Avg. Log CFU/g (kidney pair)” value in assay [2] (dose 15 mg/kg) came out at 1.40 Log CFU/g; in assay [2] (dose 30 mg/kg), 2.26 Log CFU/g. In addition, the “samples with CFU counts below the limit of detection” value in assay [2] (kidneys, LOD=2.0×10^2 CFU/mL) is “five out of eight”.
